From US4716222A, “Substrates for hydrolases” (Hoechst Aktiengesellschaft, priority 1984, dated 1987)
One block for each molecule: values may come before it.

Key:
[1] = system: leukocyte esterase; experiment: Determination of leukocyte esterase with test strips; type: biochemical; conditions: test strips immersed in leukocyte suspensions
Procedure: Indicator paper No. 218 supplied by Macherey-Nage, Dueren, Federal Republic of Germany, was impregnated successively with the following solutions and was dried:
(a) aqueous boric acid buffer 0.25 mol/l, pH 8
(b) tosylalanylresorufin 0.25 g dissolved in 1 l of ethyl acetate.
The drying temperature selected for solution (a) was about 80° C. and that for (b) was about 120° C. The samples used were suspensions containing various concentrations of leukocytes, into which the test strips were briefly immersed. After about 1 minute a red-violet color developed, the intensity of which depended on the concentration of leukocytes. The detection sensitivity of this test system is about 1000 leukocytes per microliter.

[2] = system: α-glucosidase; experiment: Kinetic determination of α-glucosidase activity in human urine; type: biochemical
From the text: The activity of α-glucosidase in human urine can be determined very sensitively in a kinetic test with the new substrate 2H-7-0-(α-D-glucopyranosyl)-4-methyl-8-nitrobenzopyran-2-one (compound S1, see Example 1). Since the pH optimum of α-glucosidase is 4 to 6, the activity cannot be measured kinetically with the hitherto customary substrate p-nitrophenyl α-glucopyranoside because the released nitrophenol has only a very low extinction at 405 nm (Table 1).
In contrast, with compound S1 as substrate an absorbance difference in normal human urine of 0,040 per minute could be measured in a kinetic test, and thus the automation of this determination is possible.
A further possibility for the kinetic determination of α-glucosidase activity is the use of 3-H-7-O-(α-glucopyranosyl)phenoxazin-3-one (resorufin-α-D-glucopyranoside). […] At 37°, using 400 μl reagent and 200 μl urine an absorbance difference of 0.136 α per minute was found.

[3] = system: β-glucosidase; experiment: Specificity check with purified β-glucosidase; type: biochemical
[4] = target: T1, β-galactosidase (Homo sapiens, UniProt P06280); experiment: Kinetic determination of galactosidase in human urine with the α-D-galactopyranosyl nitropyridine substrate; type: biochemical; conditions: 0.2 ml 10-fold concentrated normal urine + 1 ml buffered substrate solution, 405 nm, 22° C.
T1 construct: from tissue; host or cells: human urine, 10-fold concentrated
T1 sequence (P06280 32-429): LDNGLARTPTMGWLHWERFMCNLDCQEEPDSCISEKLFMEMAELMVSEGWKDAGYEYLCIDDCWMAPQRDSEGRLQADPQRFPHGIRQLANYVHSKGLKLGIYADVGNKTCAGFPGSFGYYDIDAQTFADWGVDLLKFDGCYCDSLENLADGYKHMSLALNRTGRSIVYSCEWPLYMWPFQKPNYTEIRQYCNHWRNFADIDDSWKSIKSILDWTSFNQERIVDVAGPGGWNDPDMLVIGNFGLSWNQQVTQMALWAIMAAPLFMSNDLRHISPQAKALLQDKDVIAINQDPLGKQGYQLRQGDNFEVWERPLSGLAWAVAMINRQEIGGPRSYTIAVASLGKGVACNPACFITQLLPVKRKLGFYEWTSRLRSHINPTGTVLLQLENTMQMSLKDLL
Procedure: (§1) The activity of the β-galactosidase in human urine could be kinetically determined by the use of 3-O-([…])-3-hydroxy-2-nitropyridine. For this purpose 0.2 ml of 10-fold concentrated normal urine was added to 1 ml of buffered substrate solution and the extinction change recorded at 405 nm and 22° C. Under these conditions an extinction difference of 1.2 mE/min was measured.

[5] = system: β-galactosidase; experiment: Cleavage of the substrate by β-galactosidase (specificity); type: biochemical
Procedure: as §1
(§2) The β-galactosidase activity could be kinetically measured in human urine by the use of 2H-7-O-(β-D-galactopyranosyl)-4-methyl-8-nitrobenzopyran-2-one (compound S15). An extinction change of 4 mE/min was recorded at 23° C. and 366 nm with the use of 200 μl of buffered substrate solution and 200 μl of urine of normal concentration. […] Also, β-galactosidase in human urine could be kinetically determined by using resorufin-β-D-galactopyranoside (compound S6). […] The activity of β-glucuronidase in human urine could be kinetically measured with 2H-7-O-(β-D-glucuronopyranosyl)-4-methyl-8-nitrobenzopyran-2-one (compound S9).

[6] = target: T2, β-galactosidase (Homo sapiens, UniProt P16278); experiment: Kinetic determination of β-galactosidase activity in human urine; type: biochemical
T2 construct: from tissue; host or cells: human urine
T2 sequence (P16278 29-677): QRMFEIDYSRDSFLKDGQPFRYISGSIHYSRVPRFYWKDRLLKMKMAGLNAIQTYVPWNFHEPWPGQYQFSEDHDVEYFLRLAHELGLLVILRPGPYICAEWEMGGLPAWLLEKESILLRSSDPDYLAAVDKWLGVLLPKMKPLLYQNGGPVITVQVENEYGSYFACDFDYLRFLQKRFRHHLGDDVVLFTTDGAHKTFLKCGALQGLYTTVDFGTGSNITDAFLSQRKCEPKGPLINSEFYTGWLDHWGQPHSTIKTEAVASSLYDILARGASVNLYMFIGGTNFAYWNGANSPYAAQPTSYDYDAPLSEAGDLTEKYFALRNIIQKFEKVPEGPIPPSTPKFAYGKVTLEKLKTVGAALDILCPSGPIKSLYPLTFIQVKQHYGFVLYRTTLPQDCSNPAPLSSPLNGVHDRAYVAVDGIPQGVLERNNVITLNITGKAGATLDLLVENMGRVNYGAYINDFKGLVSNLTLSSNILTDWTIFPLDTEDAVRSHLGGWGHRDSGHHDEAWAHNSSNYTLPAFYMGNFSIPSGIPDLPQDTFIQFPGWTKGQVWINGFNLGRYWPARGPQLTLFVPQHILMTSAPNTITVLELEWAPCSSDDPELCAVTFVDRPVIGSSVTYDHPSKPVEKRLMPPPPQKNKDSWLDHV
Procedure: as §2

[7] = system: IgE; experiment: Determination of IgE with a state of the art enzyme immunoassay; conditions: same incubation periods
Procedure: A substantial increase in sensitivity could be achieved using the new substrates in an enzyme immunoassay of the state of the art. In this assay the IgE concentration is determined, as a measure of an allergy by means of the indirect antibody technique. With the same incubation periods for the different substrates, an approximately 4.3-fold higher absorbance for resorufin-β-galactoside (compound S6) and an approximately 1.7-fold higher absorbance for 3-hydroxy-2-nitropyridine-β-galacto-side was measured than for the commercially available o-nitrophenyl-β-galactoside.

[8] = system: N-acetyl-β-glucosaminidase; experiment: Determination of N-acetylglucosaminidase (enzyme from ox kidney); type: biochemical
Procedure: The sensitivity of the substrates p-nitrophenyl N-acetylaminoglucoside and 2H-7-O-(2-acetamido-2-deoxy-D-glucopyranosyl)-4-methyl-8-nitrobenzopyran-2-one ([…]) were compared to each other using N-acetyl-β-glucosaminidase from ox kidney. To 0.5 ml of substrate solution was added 0.1 ml of an enzyme solution diluted 1:101 (Sigma) and the absorbance change determined at 22° C. and 405 or 365 nm.

[9] = target: T3, N-acetylglucosaminidase (Homo sapiens, UniProt P06865+P07686); experiment: Kinetic determination of N-acetylglucosaminidase activity in human urine; type: biochemical; conditions: 365 nm, 10-fold concentrated normal urine
T3 construct: from tissue; host or cells: human urine, 10-fold concentrated
T3 sequence (P07686 122-556): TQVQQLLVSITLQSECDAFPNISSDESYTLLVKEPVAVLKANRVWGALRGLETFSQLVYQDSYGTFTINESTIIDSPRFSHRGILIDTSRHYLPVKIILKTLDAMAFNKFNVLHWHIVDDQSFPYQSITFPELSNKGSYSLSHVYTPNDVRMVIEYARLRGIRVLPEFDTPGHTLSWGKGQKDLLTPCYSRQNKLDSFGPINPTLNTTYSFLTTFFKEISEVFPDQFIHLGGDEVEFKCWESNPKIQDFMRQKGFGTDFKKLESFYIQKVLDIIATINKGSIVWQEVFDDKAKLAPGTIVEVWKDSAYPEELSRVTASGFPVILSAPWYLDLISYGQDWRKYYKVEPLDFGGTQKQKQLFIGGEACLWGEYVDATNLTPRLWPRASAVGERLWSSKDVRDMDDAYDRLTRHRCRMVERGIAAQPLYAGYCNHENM
T3 sequence (P06865 89-529): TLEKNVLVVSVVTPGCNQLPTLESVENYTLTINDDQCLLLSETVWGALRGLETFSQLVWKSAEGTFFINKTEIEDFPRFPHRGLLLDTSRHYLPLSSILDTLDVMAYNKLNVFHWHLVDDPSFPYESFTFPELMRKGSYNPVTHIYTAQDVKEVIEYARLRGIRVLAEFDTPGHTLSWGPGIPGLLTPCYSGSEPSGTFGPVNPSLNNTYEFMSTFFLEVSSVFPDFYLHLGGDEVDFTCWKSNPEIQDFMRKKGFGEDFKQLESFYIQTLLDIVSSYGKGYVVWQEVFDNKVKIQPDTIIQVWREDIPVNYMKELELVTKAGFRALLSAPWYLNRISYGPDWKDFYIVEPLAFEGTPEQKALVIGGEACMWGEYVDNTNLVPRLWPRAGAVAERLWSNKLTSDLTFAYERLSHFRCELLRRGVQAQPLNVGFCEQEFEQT
Procedure: The activity in human urine (10-fold concentrated) can also be kinetically determined with S8. The determination with 0.5 buffered substrate solution and 0.1 ml 10-fold concentrated normal urine at 37° C. and 365 nm gave an absorbance change of 0,023 A/min at pH 5.5 and of 0,014 A/min at pH 4.5.

[10] = target: T4, β-glucuronidase (Homo sapiens, UniProt P08236); experiment: Determination of β-glucuronidase in human urine; type: biochemical; conditions: human urine concentrate, pH 5, 30° C., 366 nm
T4 construct: from tissue; host or cells: human urine concentrate
T4 sequence (P08236 23-651): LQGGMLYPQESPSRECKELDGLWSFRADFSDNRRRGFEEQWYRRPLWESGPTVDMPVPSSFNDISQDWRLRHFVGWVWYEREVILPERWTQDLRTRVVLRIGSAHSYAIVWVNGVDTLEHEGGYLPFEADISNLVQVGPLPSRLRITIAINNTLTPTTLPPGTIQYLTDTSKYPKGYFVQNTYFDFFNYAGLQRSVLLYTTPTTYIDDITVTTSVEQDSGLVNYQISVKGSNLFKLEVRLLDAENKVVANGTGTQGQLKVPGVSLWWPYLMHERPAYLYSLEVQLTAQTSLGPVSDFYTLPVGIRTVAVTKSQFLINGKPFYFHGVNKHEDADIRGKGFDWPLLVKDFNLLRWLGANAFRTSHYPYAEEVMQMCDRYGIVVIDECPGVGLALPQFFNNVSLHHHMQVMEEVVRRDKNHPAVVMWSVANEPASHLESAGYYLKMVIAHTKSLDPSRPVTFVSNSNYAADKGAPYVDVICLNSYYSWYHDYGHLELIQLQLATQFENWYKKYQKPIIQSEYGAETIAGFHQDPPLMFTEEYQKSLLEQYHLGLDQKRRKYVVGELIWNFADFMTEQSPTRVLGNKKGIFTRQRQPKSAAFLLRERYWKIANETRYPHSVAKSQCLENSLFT
Procedure: as §2
In this case, 0.1 ml of urine concentrate was added to 0.6 ml of buffered substrate solution and the activity recorded at pH 5, 30° C. and 366 nm. Under these conditions an absorbance difference of 0,014 A/min was measured. Consequently the determination is many times more sensitive than with the customary p-nitrophenyl substrate (Table 4).

Compound: CC(C)C[C@H](NC(=O)OC(C)(C)C)C(=O)Oc1ccc2nc3ccc(=O)cc-3oc2c1 [Boc-Leu-resorufin]
detection sensitivity [1]: 2000 leukocytes per microliter

Compound: O=[N+]([O-])c1ncccc1O[C@H]1O[C@H](CO)[C@H](O)[C@H](O)[C@H]1O [compound S3, 3-O-(α-D-Galactopyranosyl)-2-nitropyridine]
extinction difference [4]: 1.2 mE/min
cleavage by β-galactosidase [5]: not cleaved by β-galactosidase

Compound: O=c1ccc2nc3ccc(O[C@@H]4O[C@H](CO)[C@H](O)[C@H](O)[C@H]4O)cc3oc-2c1 [compound S6, Resorufin-8-β-D-galactopyranoside]
absorbance change ([6]; 578 nm, 37° C., human urine): 0,0038 A/min
absorbance change ([7]; measuring wavelength 576 nm, same sample): 0.761
fold higher absorbance than o-nitrophenyl-β-galactoside [7]: approximately 4.3 fold

Compound: Cc1cc(=O)oc2c([N+](=O)[O-])c(O[C@@H]3O[C@H](CO)[C@H](O)[C@H](O)[C@H]3O)ccc12 [compound S15, 2H-7-O-(β-Galactopyranosyl)-4-methyl-8-nitrobenzopyran-2-one]
cleavage by β-galactosidase [5]: not cleaved by β-galactosidase
extinction change ([6]; 23° C., 366 nm, 200 μl buffered substrate solution + 200 μl urine of normal concentration): 4 mE/min

Compound: O=c1ccc2nc3ccc(O[C@H]4O[C@H](CO)[C@@H](O)[C@H](O)[C@H]4O)cc3oc-2c1 [resorufin-α-D-glucopyranoside, 3-H-7-O-(α-glucopyranosyl)phenoxazin-3-one]
absorbance difference per minute ([2]; 37°, 400 μl reagent and 200 μl urine, 578 nm, pH 6): 0.136 per minute
cleavage by β-glucosidase / specificity for α-glucosidase [3]: specific substrate for α-glucosidase

Compound: Cc1ccc(S(=O)(=O)N[C@@H](C)C(=O)Oc2ccc3nc4ccc(=O)cc-4oc3c2)cc1 [tosylalanylresorufin]
detection sensitivity [1]: about 1000 leukocytes per microliter

Second part, the molecule after the results:

absorbance difference per minute ([2]; normal human urine, kinetic test): 0,040 per minute
cleavage by β-glucosidase / specificity for α-glucosidase [3]: not cleaved by β-glucosidase
Compound: Cc1cc(=O)oc2c([N+](=O)[O-])c(O[C@H]3O[C@H](CO)[C@@H](O)[C@H](O)[C@H]3O)ccc12 [compound S1, 2H-7-O-(α-D-Glucopyranosyl)-4-methyl-8-nitrobenzopyran-2-one]

absorbance change, fold greater than with p-nitrophenyl acetylaminoglucoside ([8]; pH 4.5): ~36 fold
delta A/min ([8]; pH 4.5, 22° C., 405 or 365 nm, enzyme solution diluted 1:101): 0.266 A/min
absorbance change ([9]; pH 4.5, 37° C.): 0,014 A/min
absorbance change ([9]; pH 5.5, 37° C.): 0,023 A/min
Compound: CC(=O)N[C@H]1[C@H](Oc2ccc3c(C)cc(=O)oc3c2[N+](=O)[O-])O[C@H](CO)[C@@H](O)[C@@H]1O [compound S8]

delta A/min [10]: 0,014 A/min
Compound: Cc1cc(=O)oc2c([N+](=O)[O-])c(O[C@@H]3O[C@H](C(=O)O)[C@@H](O)[C@H](O)[C@H]3O)ccc12 [compound S9, 2H-7-O-(1-β-D-Glucuronopyranosyl)-4-methyl-8-nitrobenzopyran-2-one]
